Biological target: T1, human TLR7 (Homo sapiens, UniProt Q9NYK1)
T1 construct: HA; host or cells: 293XL-hTLR7-HA (HEK293)
T1 sequence (Q9NYK1 27-1049): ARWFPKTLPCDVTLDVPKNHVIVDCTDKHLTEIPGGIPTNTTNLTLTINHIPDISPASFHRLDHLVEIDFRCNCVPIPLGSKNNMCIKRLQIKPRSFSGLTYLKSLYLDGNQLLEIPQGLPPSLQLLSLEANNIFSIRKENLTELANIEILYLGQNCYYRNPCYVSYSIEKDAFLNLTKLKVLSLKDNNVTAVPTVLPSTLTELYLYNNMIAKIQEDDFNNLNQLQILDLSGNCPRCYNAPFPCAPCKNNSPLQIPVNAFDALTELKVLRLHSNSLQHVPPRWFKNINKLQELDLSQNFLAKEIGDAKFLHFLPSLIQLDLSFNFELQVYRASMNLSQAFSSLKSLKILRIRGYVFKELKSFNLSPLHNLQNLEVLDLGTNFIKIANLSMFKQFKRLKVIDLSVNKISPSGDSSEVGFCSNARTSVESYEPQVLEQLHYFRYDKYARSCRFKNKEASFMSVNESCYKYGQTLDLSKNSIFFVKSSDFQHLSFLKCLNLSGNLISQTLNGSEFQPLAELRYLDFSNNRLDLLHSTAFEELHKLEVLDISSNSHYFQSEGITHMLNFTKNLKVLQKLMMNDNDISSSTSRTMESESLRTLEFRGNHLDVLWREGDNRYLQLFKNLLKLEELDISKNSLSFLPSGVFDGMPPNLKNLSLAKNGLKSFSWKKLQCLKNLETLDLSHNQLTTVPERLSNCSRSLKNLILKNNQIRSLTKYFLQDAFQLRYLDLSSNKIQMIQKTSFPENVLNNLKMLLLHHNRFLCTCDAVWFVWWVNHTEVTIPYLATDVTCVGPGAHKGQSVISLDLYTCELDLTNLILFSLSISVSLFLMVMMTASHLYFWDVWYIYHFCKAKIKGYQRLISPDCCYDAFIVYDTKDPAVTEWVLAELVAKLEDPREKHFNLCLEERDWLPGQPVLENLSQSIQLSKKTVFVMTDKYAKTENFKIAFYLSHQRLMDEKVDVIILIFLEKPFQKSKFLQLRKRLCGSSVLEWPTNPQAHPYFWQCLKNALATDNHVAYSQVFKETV
Experiment: HEK-TLR7 NF-κB-luciferase reporter, R848 stimulation
Format: cell-based
Details: averaged NF-κB-Luciferase relative to R848 condition; for TLR7 100 nM: MOE-modified ASO at 100 nM; for TLR7 500 nM: MOE-modified ASO at 500 nM

Sequence | TLR7 100 nM | TLR7 500 nM
CCAACACTTCGTGGGGTCCT (antisense; 2'-MOE modified, pattern not given here) [HPRT-666 MOE] | 0.856 | 0.334
GAGTCTCTGGAGCTTCCTCT (antisense; 2'-MOE modified, pattern not given here) [CAMSAP1-2456 MOE] | 0.469 | 0.170
TCAAAGGACTGAGGAAAGGG (antisense; 2'-MOE modified, pattern not given here) [CAMSAP1-6273 MOE] | 0.397 | 0.189
CTGTGATCTTGACATGCTGC (antisense; 2'-MOE modified, pattern not given here) [EGFR-2790 MOE] | 0.449 | 0.206
TAGGCACTTTGCCTCCTTCT (antisense; 2'-MOE modified, pattern not given here) [EGFR-2859 MOE] | 0.455 | 0.205
TTGCCATGCTGGCTCGGACT (antisense; 2'-MOE modified, pattern not given here) [CAMSAP1-2584 MOE] | 0.445 | 0.138
GCGGAGGTCTTGGCTTCGTG (antisense; 2'-MOE modified, pattern not given here) [MB21D1-526 MOE] | 0.453 | 0.154
CAGATAGCACCTTCAGCACT (antisense; 2'-MOE modified, pattern not given here) [CTNN2B-1294 MOE] | 0.497 | 0.254
GTCCTTGCACGTGGCTTCGT (antisense; 2'-MOE modified, pattern not given here) [EGFR-1013 MOE] | 0.216 | 0.088
GATGCTCCTCGGTCTCCCTT (antisense; 2'-MOE modified, pattern not given here) [CAMSAP1-1850 MOE] | 0.453 | 0.199
ACTGACTGTCTTGAGGGTTC (antisense; 2'-MOE modified, pattern not given here) [MB21D1-1483 MOE] | 0.627 | 0.299
GAGGTCTTGGCTTCGTGGAG (antisense; 2'-MOE modified, pattern not given here) [MB21D1-523 MOE] | 0.419 | 0.095
TGTCTTCATCGGCCCTGCCT (antisense; 2'-MOE modified, pattern not given here) [CAMSAP1-2112 MOE] | 0.396 | 0.185
TTGGCTCGGCTTGCCTACTT (antisense; 2'-MOE modified, pattern not given here) [CAMSAP1-5594 MOE] | 0.523 | 0.204
GCGTATTATAGCCGATTAAC (antisense; 2'-MOE modified, pattern not given here) [NC1 2′MOE] | 0.565 | 0.265
GATGGCCTCCCATCTCCTTC (antisense; 2'-MOE modified, pattern not given here) [HPRT-329 MOE] | 0.678 | 0.336

From patent US20240384268A1, “Oligonucleotides” (Hudson Institute of Medical Research, priority 2021, published 2024)
